Consider 5 compounds from patent US20090181438A1, “OPTIMIZATION OF BIOFUEL PRODUCTION” (THE OHIO STATE UNIVERSITY RESEARCH FOUNDATION, priority 2007, published 2009).

Series [1] concerns cultures of Botryococcus braunii. The conditions noted are these: cited from earlier work.
The subject of series [2] is Nannochloropsis sp. cultures.
Description: Variable fractions (0, 10%, 25%, and 50%) of identical 100 mL Nannochloropsis sp. cultures (n=2) were initially (arrows) mixed (15 min) with decane and exposed to an ultrasonic field (2 sec; 40 kHz water bath), decanted of solvent, then grown (F/2, 23° C., 24:0 of 100 μmol, 100 rpm, 33 ppt, 100 mL in 500 mL flasks). Further, variable timed treatments (arrows) at log-phase and stationary phases were also completed.
Series [3] has as its system Nannochloropsis sp. It counts as cell-based. The method, then: Under simulated outdoor growing conditions (30 ppt, 26-37° C., 14:10 of 1000 umol, F/2) 12 liter aquaria of Nannochloropsis sp., equipped with mixers and pH controlled (˜7.2) CO2 gas input, had 25% of culture volume removed daily which was variably (0-25% of total fraction) extracted of lipids with decane (15 min) and sonic (2 sec) energy, decanted of solvent, then returned to culture, while the remaining untreated fraction (0-25%) was removed, dried and extracted with hexane.

For `CCCCCOCCCCC` [dipentyl ether], in series [1], the “solvent toxicity / biocompatibility” value is reported as “toxic”.

As for `CCCCCC` [hexane], in series [1], the “solvent toxicity / biocompatibility” value is recorded as “nontoxic”.

Consider `CCCCCCC` [heptane], for which the “solvent toxicity / biocompatibility” value in series [1] was “nontoxic”.

For the compound `CCCCCCCCCCO` [decanol], in series [1], the “solvent toxicity / biocompatibility” value is given as “toxic”.

Turning to `CCCCCCCCCC` [decane], the “growth rate and resultant algal biomass compared to no treatment” value in series [2] was “can positively affect growth rate and resultant algal biomass”. In series [3], the “growth rates and resultant culture biomass” value was “augment growth rates and the resultant culture biomass”; the “tolerance of daily exposure to treatment” value is listed as “tolerated”.
